Experiments:
C57B1/6J mice = assay: oral glucose tolerance test (OGTT) in C57B1/6J mice; assay type: in vivo; conditions: 30 mg/kg oral gavage, 2 g/kg glucose bolus two hours after dosing; vs vehicle treated mice
Description: The in vivo activity of selected compounds of the invention was characterized using an oral glucose tolerance test in C57B1/6J mice.
C57B1/6J mice were obtained from Jackson Laboratory (Bar Harbor, Me.) and were maintained in a light-dark cycle with lights on from 0600-1800 hr. The mice were received at age nine weeks and given ad libitum access to diet (LabDiet 5001 chow, PMI Nutrition, Brentwood, Mo.), and were at age 10 weeks at the time of study The experiments were conducted during the light phase of the light-dark cycle. Mice (n=10) were weighed and fasted for a four hour period prior to treatment with GPR119 agonists or formulation vehicle via oral gavage. GPR119 agonists were formulated in Klucel vehicle (2% Klucel LF with 0.1% Tween 80, in water) at a concentration of 4.0 mg/mL and the mice were dosed with a 7.5 mL/kg volume to equal a 30 mg/kg dose. Two hours following dosing, the animals were given an oral glucose tolerance test (OGTT). For the OGTT, the animals were given a 2 g/kg glucose bolus via oral gavage. Blood glucose readings were made immediately prior to the glucose challenge, and 30, 60 and 120 minutes following. […] Area under the curve (AUC) for plots of blood glucose vs. time for the individual mice was calculated by the trapezoidal method. […]

GPR119 receptor = biological target: T1, GPR119 receptor (Mesocricetus auratus, UniProt A0A1U8CD06); assay: cAMP assay in HIT-T15 hamster pancreatic islet cells (functional agonist activity); assay type: cell-based; conditions: HIT-T15 cells endogenously expressing GPR119; 30 min at 25° C.; intracellular cAMP
T1 construct: which endogenously express the GPR119 receptor; host or cells: HIT-T15 hamster pancreatic islet cells
T1 sequence (A0A1U8CD06 1-334): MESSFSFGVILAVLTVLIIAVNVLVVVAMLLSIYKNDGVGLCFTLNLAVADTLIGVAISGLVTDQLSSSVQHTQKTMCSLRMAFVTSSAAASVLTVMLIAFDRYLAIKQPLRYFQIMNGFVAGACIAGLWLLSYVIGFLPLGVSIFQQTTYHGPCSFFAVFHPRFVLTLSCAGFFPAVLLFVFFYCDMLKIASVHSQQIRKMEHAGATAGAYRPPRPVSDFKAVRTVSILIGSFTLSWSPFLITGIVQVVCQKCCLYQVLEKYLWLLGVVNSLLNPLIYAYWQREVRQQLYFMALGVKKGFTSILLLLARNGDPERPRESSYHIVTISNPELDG
In short: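 HIT-T15 cells (endogenous GPR119), 9000/well, exposed to agonist 30 min at 25° C with 0.5 mM IBMX and 0.5 mg/ml BSA. Lysate cAMP measured by chemiluminescent competitive immunoassay; EC50 from curve fit.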

SMILES | EC50 (GPR119 receptor) | decrease in mean baseline-subtracted AUC (blood glucose vs. time) (C57B1/6J mice)
CC(C)OC(=O)N1CCC(n2ncc3c(Oc4ccc(S(C)(=O)=O)cc4)ncnc32)CC1 [Example 21, 4-[4-(4-Methanesulfonyl-phenoxy)-pyrazolo[3,4-d]pyrimidin-1-yl]-piperidine-1-carboxylic acid isopropyl ester] | 0.26 µM | 44%
COc1ccc(Oc2ncnc3c2cnn3C2CCN(C(=O)OC(C)(C)C)CC2)c(Cl)c1 [Example 44, 4-[4-(2-Chloro-4-methoxy-phenoxy)-pyrazolo[3,4-d]pyrimidin-1-yl]-piperidine-1-carboxylic acid tert-butyl ester] | 0.19 µM | 
CCOc1ccc(Oc2ncnc3c2cnn3C2CCN(C(=O)OC(C)C)CC2)c(F)c1 [Example 18, 4-[4-(4-Ethoxy-2-fluoro-phenoxy)-pyrazolo[3,4-d]pyrimidin-1-yl]-piperidine-1-carboxylic acid isopropyl ester] | 0.38 µM | 
CC(C)(C)OC(=O)N1CCC(n2ncc3c(Oc4ccc5sccc5c4)ncnc32)CC1 [Example 77, 4-[4-(Benzo[b]thiophen-5-yloxy)-pyrazolo[3,4-d]pyrimidin-1-yl]-piperidine-1-carboxylic acid tert-butyl ester] | 0.99 µM | 
CC(C)(C)OC(=O)N1CCC(n2ncc3c(Oc4cccc(F)c4)ncnc32)CC1 [Example 33, 4-[4-(3-Fluoro-phenoxy)-pyrazolo[3,4-d]pyrimidin-1-yl]-piperidine-1-carboxylic acid tert-butyl ester] | 0.6 µM | 
CC(C)(C)OC(=O)N1CCC(n2ncc3c(Oc4cncc(Cl)c4)ncnc32)CC1 [Example 100, 4-[4-(5-Chloro-pyridin-3-yloxy)-pyrazolo[3,4-d]pyrimidin-1-yl]-piperidine-1-carboxylic acid tert-butyl ester] | 1.8 µM | 
CC(C)(C)OC(=O)N1CCC(n2ncc3c(Oc4ccc(C#N)cc4)ncnc32)CC1 [Example 46, 4-[4-(4-Cyano-phenoxy)-pyrazolo[3,4-d]pyrimidin-1-yl]-piperidine-1-carboxylic acid tert-butyl ester] | 0.48 µM | 
CC(C)(C)OC(=O)N1CCC(n2ncc3c(Oc4ccc5c(c4)OCO5)ncnc32)CC1 [Example 41, 4-[4-(Benzo[1,3]dioxol-5-yloxy)-pyrazolo[3,4-d]pyrimidin-1-yl]-piperidine-1-carboxylic acid tert-butyl ester] | 0.29 µM | 
CC(C)OC(=O)N1CCC(n2ncc3c(Oc4ccc(S(C)(=O)=O)cc4F)ncnc32)CC1 [Example 23, 4-[4-(2-Fluoro-4-methanesulfonyl-phenoxy)-pyrazolo[3,4-d]pyrimidin-1-yl]-piperidine-1-carboxylic acid isopropyl ester] | 0.11 µM | 
CS(=O)(=O)c1ccc(Oc2ncnc3c2cnn3C2CCN(C(=O)OC(C(F)(F)F)C(F)(F)F)CC2)cc1 [Example 112, 4-[4-(4-Methanesulfonyl-phenoxy)-pyrazolo[3,4-d]pyrimidin-1-yl]-piperidine-1-carboxylic acid 2,2,2-trifluoro-1-trifluoromethyl-ethyl ester] | 0.5 µM | 
CC(C)(C)OC(=O)N1CCC(n2ncc3c(Oc4ccc(C#N)cc4F)ncnc32)CC1 [Example 47, 4-[4-(4-Cyano-2-fluoro-phenoxy)-pyrazolo[3,4-d]pyrimidin-1-yl]-piperidine-1-carboxylic acid tert-butyl ester] | 0.28 µM | 
CC(C)(C)OC(=O)N1CCC(n2ncc3c(Oc4ccc5[nH]ccc5c4)ncnc32)CC1 [Example 74, 4-[4-(1H-Indol-5-yloxy)-pyrazolo[3,4-d]pyrimidin-1-yl]-piperidine-1-carboxylic acid tert-butyl ester] | 1.9 µM | 
CC[C@@H](C)OC(=O)N1CCC(n2ncc3c(Oc4ccc(S(C)(=O)=O)cc4)ncnc32)CC1 [Example 105, 4-[4-(4-Methanesulfonyl-phenoxy)-pyrazolo[3,4-d]pyrimidin-1-yl]-piperidine-1-carboxylic acid (R)-sec-butyl ester] | 0.15 µM | 
CC(=O)Nc1ccc(Oc2ncnc3c2cnn3C2CCN(C(=O)OC(C)C)CC2)cc1 [Example 25, 4-[4-(4-Acetylamino-phenoxy)-pyrazolo[3,4-d]pyrimidin-1-yl]-piperidine-1-carboxylic acid isopropyl ester] | 0.46 µM | 
CCOc1ccc(Oc2ncnc3c2cnn3C2CCN(C(=O)OC3CCCC3)CC2)c(F)c1 [Example 117, 4-[4-(4-Ethoxy-2-fluoro-phenoxy)-pyrazolo[3,4-d]pyrimidin-1-yl]-piperidine-1-carboxylic acid cyclopentyl ester] | 0.17 µM | 
CC(C)OC(=O)N1CCC(n2ncc3c(Oc4ccc(S(C)(=O)=O)c(F)c4)ncnc32)CC1 [Example 24, 4-[4-(3-Fluoro-4-methanesulfonyl-phenoxy)-pyrazolo[3,4-d]pyrimidin-1-yl]-piperidine-1-carboxylic acid isopropyl ester] | 0.098 µM | 

Continued, in another order:

EC50 (GPR119 receptor) | SMILES | decrease in mean baseline-subtracted AUC (blood glucose vs. time) (C57B1/6J mice)
0.78 µM | CC(C)(C)C(=O)N1CCC(n2ncc3c(Oc4ccc(S(C)(=O)=O)cc4)ncnc32)CC1 [Example 138, 1-{4-[4-(4-Methanesulfonyl-phenoxy)-pyrazolo[3,4-d]pyrimidin-1-yl]-piperidin-1-yl}-2,2-dimethyl-propan-1-one] | 
0.28 µM | CS(=O)(=O)c1ccc(Oc2ncnc3c2cnn3C2CCN(Cc3cccc(Cl)c3)CC2)cc1 [Example 158, 1-[1-(3-Chloro-benzyl)-piperidin-4-yl]-4-(4-methanesulfonyl-phenoxy)-1H-pyrazolo[3,4-d]pyrimidine] | 
1.6 µM | CS(=O)(=O)c1ccc(Oc2ncnc3c2cnn3C2CCN(C(=O)c3cccs3)CC2)cc1 [Example 155, {4-[4-(4-Methanesulfonyl-phenoxy)-pyrazolo[3,4-d]pyrimidin-1-yl]-piperidin-1-yl}-thiophen-2-yl-methanone] | 
0.35 µM | CC(C)c1noc([C@H]2CC[C@H](n3ncc4c(Oc5ccc(S(C)(=O)=O)cc5F)ncnc43)CC2)n1 [Example 132, 4-(2-Fluoro-4-methanesulfonyl-phenoxy)-1-[4-(3-isopropyl-[1,2,4]oxadiazol-5-yl)-trans-cyclohexyl]-1H-pyrazolo[3,4-d]pyrimidine] | 
0.36 µM | CS(=O)(=O)c1ccc(Oc2ncnc3c2cnn3C2CCN(Cc3ccccc3O)CC2)cc1 [Example 164, 2-{4-[4-(4-Methanesulfonyl-phenoxy)-pyrazolo[3,4-d]pyrimidin-1-yl]-piperidin-1-ylmethyl}-phenol] | 
0.44 µM | CC(C)CCC(=O)N1CCC(n2ncc3c(Oc4ccc(S(C)(=O)=O)cc4)ncnc32)CC1 [Example 143, 1-{4-[4-(4-Methanesulfonyl-phenoxy)-pyrazolo[3,4-d]pyrimidin-1-yl]-piperidin-1-yl}-4-methylpentan-1-one] | 
0.063 µM | N#Cc1ccc(F)c(F)c1Oc1ncnc2c1cnn2C1CCN(C(=O)OC2CCCC2)CC1 [Example 119, 4-[4-(6-Cyano-2,3-difluoro-phenoxy)-pyrazolo[3,4-d]pyrimidin-1-yl]-piperidine-1-carboxylic acid cyclopentyl ester] | 
3.4 µM | CC(C)(C)OC(=O)N1CCC(n2ncc3c(Oc4ccccc4C#N)nc(N)nc32)CC1 [Example 174, 4-[6-Amino-4-(2-cyano-phenoxy)-pyrazolo[3,4-d]pyrimidin-1-yl]-piperidine-1-carboxylic acid tert-butyl ester] | 
2.3 µM | Cc1ncccc1Oc1ncnc2c1cnn2C1CCN(c2nc(C(C)C)no2)CC1 [Example 129, 1-[1-(3-Isopropyl-[1,2,4]oxadiazol-5-yl)-piperidin-4-yl]-4-(2-methyl-pyridin-3-yloxy)-1H-pyrazolo[3,4-d]pyrimidine] | 
2.7 µM | Cc1ncccc1Oc1ncnc2c1cnn2C1CCN(C(=O)Oc2ccc([N+](=O)[O-])cc2)CC1 [Example 123, 4-[4-(2-Methyl-pyridin-3-yloxy)-pyrazolo[3,4-d]pyrimidin-1-yl]-piperidine-1-carboxylic acid 4-nitro-phenyl ester] | 

— patent publication US8188098B2, “GPR119 receptor agonists” (Hoffmann-La Roche Inc., priority 2008, dated 2012)
